Results on 26 molecules are retold here after patent US20250154134A1, “COMPOUND AS FAK INHIBITOR AND USE THEREOF” (WIGEN BIOMEDICINE TECHNOLOGY (SHANGHAI) CO., LTD., priority 2022, published 2025).

The target of one data set is FAK recombinant protein (Homo sapiens (Human), UniProt Q05397). The data set can be described thus: Inhibitory activity against FAK enzyme (HTRF, TK substrate). The format is biochemical. As for the experimental part: A compound serially diluted with DMSO was mixed with a FAK recombinant protein. After the mixture was left to stand at room temperature for 10 min, a biotin-labeled TK substrate (TK) and ATP were added. […] The inhibition percentage and IC50 of the compound were calculated compared to the DMSO control group.
FAK recombinant protein, sequence (Q05397 whole entry): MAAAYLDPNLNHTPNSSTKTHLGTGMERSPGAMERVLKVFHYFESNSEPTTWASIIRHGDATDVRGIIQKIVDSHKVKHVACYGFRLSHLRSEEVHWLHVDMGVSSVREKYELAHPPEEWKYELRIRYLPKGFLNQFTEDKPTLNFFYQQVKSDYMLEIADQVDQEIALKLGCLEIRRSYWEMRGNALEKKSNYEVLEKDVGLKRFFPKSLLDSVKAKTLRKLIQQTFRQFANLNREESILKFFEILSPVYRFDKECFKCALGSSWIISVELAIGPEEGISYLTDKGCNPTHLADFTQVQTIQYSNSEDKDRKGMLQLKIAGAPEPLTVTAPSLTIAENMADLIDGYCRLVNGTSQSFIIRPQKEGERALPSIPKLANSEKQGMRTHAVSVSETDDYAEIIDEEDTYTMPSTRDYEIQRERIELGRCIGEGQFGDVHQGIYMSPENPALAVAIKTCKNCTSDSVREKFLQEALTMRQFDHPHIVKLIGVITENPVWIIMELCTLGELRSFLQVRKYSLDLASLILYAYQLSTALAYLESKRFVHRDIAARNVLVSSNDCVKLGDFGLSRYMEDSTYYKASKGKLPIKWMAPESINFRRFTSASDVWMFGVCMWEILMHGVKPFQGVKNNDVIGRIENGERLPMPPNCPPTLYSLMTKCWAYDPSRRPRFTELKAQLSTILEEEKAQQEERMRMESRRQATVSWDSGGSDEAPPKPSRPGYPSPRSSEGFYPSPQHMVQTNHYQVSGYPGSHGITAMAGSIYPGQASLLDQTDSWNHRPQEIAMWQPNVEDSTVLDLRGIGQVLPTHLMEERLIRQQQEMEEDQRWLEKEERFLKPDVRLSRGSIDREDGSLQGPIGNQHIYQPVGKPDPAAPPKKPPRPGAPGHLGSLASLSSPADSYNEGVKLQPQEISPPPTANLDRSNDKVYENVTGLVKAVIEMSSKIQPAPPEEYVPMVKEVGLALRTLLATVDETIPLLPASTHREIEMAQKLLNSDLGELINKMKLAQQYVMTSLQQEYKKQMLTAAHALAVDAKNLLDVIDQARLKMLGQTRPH
In general terms: Time-resolved FRET reads energy transfer from a long-lived donor to a nearby acceptor.

The test system of data set [1] is PC3 cells. Nature of the data set: PC3 cell proliferation, 2D activity assay (Cell Titer-Lumi, 72 h). The format is cell-based, human. Conditions: Homo sapiens, PC-3, read-out: 2D inhibitory activity against PC3 cells IC50.
Data set [2] deals with PC3 cells. The data set can be described thus: PC3 cell proliferation, 3D activity assay (3D culture, 14 days). The class given is cell-based, human. Conditions: Homo sapiens, PC-3, 336 h, read-out: 3D inhibitory activity against PC3 cells IC50.
Data set [3] relates to PC3 cells. Nature of the data set: Inhibition of PC3 cell low adsorption (adherent cell count, 4 h). The format is cell-based. Conditions: Homo sapiens, PC-3; 4 h treatment; read-out: IC50 against PC3 cell low adsorption. On the procedure:
PC3 cells were seeded at 8000 cells/well. 4 h after the cells were treated with a compound, the number of adherent cells was counted. The inhibition percentage and IC50 of the compound were calculated compared to the DMSO group.

A short description of data set [4]: In vivo pharmacokinetic experiment in CD-1 mice. Conditions: mouse, plasma, CD-1 female mice. As for the experimental part:
[…] The mice were fasted for at least 12 h before the administration and given food 4 h after the administration, and they were given ad libitum access to water during the experiment.
On the day of the experiment, animals in the intravenous group were given the corresponding compound by single injection via the tail vein at an administration volume of 10 mL/kg; and animals in the oral group were given the corresponding compound by single intragastric injection at an administration volume of 10 mL/kg. The animals were weighed before administration, and the administration volume was calculated according to the body weight. The sample collection time points were 0.083 h, 0.167 h, 0.5 h, 1 h, 2 h, 4 h, 8 h, and 24 h. About 200 μL of whole blood was collected through the orbital venous plexus at each time point and used to prepare plasma for concentration determination by high-performance liquid chromatography-tandem mass spectrometry (LC-MS/MS). The plasma concentrations were processed using a non-compartmental model of Winnolin pharmacokinetic software, and the pharmacokinetic parameters were calculated using a linear-log trapezoidal method.

The mark [5] stands for this setting: intravenous, injection (1 mg/kg).

The IC50 is the concentration that gives 50% inhibition. One may read the AUC(0-t) as the area under the concentration-time curve up to a stated or last time point. High values mean more exposure, low ones less exposure. What is called clearance is a measure of how efficiently the substance is removed, as volume per time. For orientation: half-life means the time needed for the level to fall by half in the phase considered. Read a low half-life as fast loss. The term Cmax denotes the maximum level reached in the sampled fluid or tissue. A word on the Tmax: it is the time at which the peak concentration occurs. As usually defined, the bioavailability is dose-corrected exposure relative to a reference, in per cent.

With `COc1cc(N2CCN(C)CC2)ccc1Nc1ncc(Cl)c(Oc2cccc3c2C(=O)N(C)C32CC2)n1` [Compound 141], the IC50 was less than 0.02 µM at FAK recombinant protein, greater than 2 µM with PC3 cells [1], 0.005 to 0.05 µM in the data set on PC3 cells [2] and 0.0139 µM in the data set on PC3 cells [3].
For `COc1cc(CN(C)C2CCN(C)CC2)ccc1Nc1ncc(Cl)c(Oc2cccc3c2C(=O)N(C)C32CC2)n1` [Compound 154], in that order: less than 0.02 µM, greater than 2 µM, 0.005 to 0.05 µM and 0.0069 µM.
With `CN1C(=O)c2c(Oc3nc(Nc4ccc5c(c4)CC(=O)N5)ncc3C(F)(F)F)cccc2C12CC2` [Compound 69], the IC50 at FAK recombinant protein is less than 0.02 µM; in the data set with PC3 cells [1], greater than 2 µM; in the data set with PC3 cells [2], 0.00852 µM; with PC3 cells [3] it was 0.0134 µM.
Turning to `COc1cc(N2CCC(N3CCN(C)CC3)CC2)c(F)cc1Nc1ncc(C(F)(F)F)c(Oc2cccc3c2C(=O)N(C)C32CC2)n1` [Compound 121, 4′-((2-((5-fluoro-2-methoxy-4-(4-(4-methylpiperazin-1-yl)piperidin-1-yl)phenyl)amino)-5-(trifluoromethyl)pyrimidin-4-yl)oxy)-2′-methylspiro[cyclopropane-1,1′-isoindolin]-3′-one], the concentration for half-maximal inhibition (IC50) on FAK recombinant protein was less than 0.02 µM; in the data set on PC3 cells [1] it was greater than 2 µM; in the data set with PC3 cells [2], less than 0.005 µM; in the data set with PC3 cells [3], 0.0072 µM.
In the case of `COc1cc(CN2CCN(C)CC2)ccc1Nc1ncc(C(F)(F)F)c(Oc2cccc3c2C(=O)N(C)C32CC2)n1` [Compound 82], the half-inhibitory concentration (IC50) on FAK recombinant protein was less than 0.02 µM; in the data set on PC3 cells [1], greater than 2 µM; with PC3 cells [2], 0.005 to 0.05 µM; with PC3 cells [3], 0.00629 µM.
For `CN1C(=O)c2c(Oc3nc(Nc4ccc5c(c4)CCNC5=O)ncc3C(F)(F)F)cccc2C12CC2` [Compound 71], in that order: less than 0.02 µM, greater than 2 µM, 0.00518 µM and 0.0164 µM.
Consider `COc1cc(N2CCOCC2)ccc1Nc1ncc(C(F)(F)F)c(Oc2cccc3c2C(=O)N(C)C32CC2)n1` [Compound 77], for which the half-maximal inhibitory concentration (IC50) on FAK recombinant protein was less than 0.02 µM; in the data set on PC3 cells [1], greater than 10 µM; in the data set with PC3 cells [2], 0.00488 µM; with PC3 cells [3], 0.0272 µM.
Take `COc1cc(N2CC3(CCN(C)CC3)C2)c(F)cc1Nc1ncc(C#N)c(Oc2cccc3c2C(=O)N(C)C32CC2)n1` [Compound 197]: the IC50 is less than 0.02 µM at FAK recombinant protein, greater than 2 µM in the data set with PC3 cells [1], 0.00242 µM in the data set with PC3 cells [2] and 0.00167 µM in the data set with PC3 cells [3].
Turning to `CN1Cc2cc(Nc3ncc(C(F)(F)F)c(Oc4cccc5c4C(=O)N(C)C54CC4)n3)cc3c2C(CCC3)C1` (stereo not drawn) [Compound 88], the IC50 was less than 0.02 µM on FAK recombinant protein, greater than 10 µM in the data set with PC3 cells [1], 0.00178 µM with PC3 cells [2] and 0.0424 µM in the data set with PC3 cells [3].
As to `COc1cc(C(=O)NC2(C)CCN(C)CC2)ccc1Nc1ncc(C(F)(F)F)c(Oc2cccc3c2C(=O)N(C)C32CC2)n1` [Compound 6], the IC50 was less than 0.02 µM at FAK recombinant protein, greater than 2 µM in the data set on PC3 cells [1], less than 0.005 µM in the data set with PC3 cells [2] and 0.00267 µM in the data set with PC3 cells [3].
The corresponding values for `CN1Cc2cc(Nc3ncc(C(F)(F)F)c(Oc4cccc5c4C(=O)N(C)C54CC4)n3)cc3c2C(CCO3)C1` (stereo not drawn) [Compound 89] are less than 0.02 µM, greater than 10 µM, 0.005 to 0.05 µM and 0.0362 µM.
For `Cc1cc(Nc2ncc(C(F)(F)F)c(Oc3cccc4c3C(=O)N(C)C43CC3)n2)n(C(C)C)n1` [Compound 91], in that order: less than 0.02 µM, greater than 2 µM, 0.005 to 0.05 µM and 0.0364 µM.
Regarding `COc1cc(C(=O)NC2CCN(C)CC2)ccc1Nc1ncc(C(F)(F)F)c(Oc2cccc3c2C(=O)N(C)C32CC2)n1` [Compound 3, 3-methoxy-4-((4-((2′-methyl-3′-oxospiro[cyclopropane-1,1′-isoindolin]-4′-yl)oxy)-5-(trifluoromethyl)pyrimidin-2-yl)amino)-N-(1-methylpiperidin-4-yl)benzamide], the IC50 in the data set with PC3 cells [1] was greater than 2 µM. In addition, the IC50 in the data set on PC3 cells [2] amounted to 0.00045 µM. In the data set on PC3 cells [3], the half-inhibitory concentration (IC50) stood at 0.00314 µM. Besides, in data set [4] (setting [5]), the exposure AUC(0-t) worked out at 0.248 µg·h/mL, the clearance worked out at 4.03 L/h/kg and the half-life was 2.14 h. Moreover, in data set [4] (intravenous, injection (1 mg/kg), read-out: Vdss), the Vd came to 6.14 L/kg. Moreover, in data set [4] (oral administration (10 mg/kg)), the exposure AUC(0-t) was 0.19 µg·h/mL, the peak level (Cmax) was 0.0573 µg/mL, the Tmax was found to be 4 h and the bioavailability amounted to 7.94%.
For `COc1cc(C(=O)NC2CC3(CCN(C)CC3)C2)c(F)cc1Nc1ncc(C(F)(F)F)c(Oc2cccc3c2C(=O)N(C)C32CC2)n1` [Compound 8, 2-fluoro-5-methoxy-4-((4-((2′-methyl-3′-oxospiro[cyclopropane-1,1′-isoindolin]-4′-yl)oxy)-5-(trifluoromethyl)pyrimidin-2-yl)amino)-N-(7-methyl-7-azaspiro[3.5]nonan-2-yl)benzamide], the IC50 at FAK recombinant protein was less than 0.02 µM; in the data set on PC3 cells [1] it was greater than 2 µM; in the data set with PC3 cells [2], 0.00096 µM; in the data set on PC3 cells [3] it was 0.00754 µM.
The corresponding values for `CNC(=O)c1ccc(Nc2ncc(C(F)(F)F)c(Oc3cccc4c3C(=O)N(C)C43CC3)n2)cc1` [Compound 1, N-methyl-4-((4-((2′-methyl-3′-oxospiro[cyclopropane-1,1′-isoindolin]-4′-yl)oxy)-5-(trifluoromethyl)pyrimidin-2-yl)amino)benzamide] are less than 0.02 µM, greater than 2 µM, 0.0108 µM and 0.0211 µM.
Take `CN1C(=O)c2c(Oc3nc(Nc4cc5n(n4)CCC5)ncc3C(F)(F)F)cccc2C12CC2` [Compound 92, 4′-((2-((5,6-dihydro-4H-pyrrolo[1,2-b]pyrazol-2-yl)amino)-5-(trifluoromethyl)pyrimidin-4-yl)oxy)-2′-methylspiro[cyclopropane-1,1′-isoindolin]-3′-one]: the IC50 is less than 0.02 µM on FAK recombinant protein, greater than 2 µM with PC3 cells [1], 0.005 to 0.05 µM in the data set with PC3 cells [2] and 0.062 µM in the data set on PC3 cells [3].
Turning to `COc1cc(C(=O)N2CCC3(CCCN(C)C3)C2)ccc1Nc1ncc(C(F)(F)F)c(Oc2cccc3c2C(=O)N(C)C32CC2)n1` (stereo not drawn) [Compound 61], the half-maximal inhibitory concentration (IC50) was less than 0.02 µM at FAK recombinant protein, greater than 2 µM with PC3 cells [1] and 0.005 to 0.05 µM in the data set with PC3 cells [2].
`COc1cc(C(=O)NC2CCN(C)CC2)ccc1Nc1ncc(Br)c(Oc2cccc3c2C(=O)N(C)C32CC2)n1` [Compound 116]: the IC50 on FAK recombinant protein was less than 0.02 µM; with PC3 cells [1], greater than 2 µM; in the data set with PC3 cells [2] it was 0.005 to 0.05 µM.
In the case of `COc1cc(N2CC3(CN(C)C3)C2)c(F)cc1Nc1ncc(Cl)c(Oc2cccc3c2C(=O)N(C)C32CC2)n1` [Compound 145], the figures for the IC50 on FAK recombinant protein, with PC3 cells [1] and in the data set on PC3 cells [2] were less than 0.02 µM, greater than 2 µM and 0.005 to 0.05 µM, respectively.
Turning to `COc1cc2c(cc1Nc1ncc(C(F)(F)F)c(Oc3cccc4c3C(=O)N(C)C43CC3)n1)CN(C)C(=O)C2` [Compound 90], the IC50 at FAK recombinant protein is less than 0.02 µM; with PC3 cells [1] it was greater than 2 µM; with PC3 cells [2], 0.005 to 0.05 µM.
For `COc1cc(N2CCC3(CCN(C)C3)C2)c(F)cc1Nc1ncc(Cl)c(Oc2cccc3c2C(=O)N(C)C32CC2)n1` (stereo not drawn) [Compound 150], in that order: less than 0.02 µM, greater than 2 µM and less than 0.005 µM.
Turning to `COc1cc(N2CCC(N3CCN(C)CC3)CC2)ccc1Nc1ncc(C(F)(F)F)c(Cc2cccc3c2C(=O)N(C)C32CC2)n1` [Compound 113], the figures for the concentration for half-maximal inhibition (IC50) on FAK recombinant protein, in the data set with PC3 cells [1] and in the data set with PC3 cells [2] were less than 0.02 µM, greater than 2 µM and 0.005 to 0.05 µM, respectively.
As for `COc1cc(C(=O)NC2CCC3(CCN(C)C3)C2)ccc1Nc1ncc(C(F)(F)F)c(Oc2cccc3c2C(=O)N(C)C32CC2)n1` (stereo not drawn) [Compound 25], the IC50 at FAK recombinant protein was less than 0.02 µM; with PC3 cells [1], greater than 2 µM; in the data set on PC3 cells [2], less than 0.005 µM.
For the molecule `COc1cc(C2CCN(C)CC2)ccc1Nc1ncc(C(F)(F)F)c(Oc2cccc3c2C(=O)N(C)C32CC2)n1` [Compound 84], the IC50 was less than 0.02 µM at FAK recombinant protein, greater than 2 µM with PC3 cells [1] and less than 0.005 µM in the data set with PC3 cells [2].
With `COc1cc(C(=O)NC2COC3(CCN(C)C3)C2)ccc1Nc1ncc(C(F)(F)F)c(Oc2cccc3c2C(=O)N(C)C32CC2)n1` (stereo not drawn) [Compound 27], the IC50 is less than 0.02 µM at FAK recombinant protein, greater than 2 µM in the data set on PC3 cells [1], less than 0.005 µM in the data set on PC3 cells [2] and 0.0117 µM in the data set on PC3 cells [3].
Consider `COc1cc(N2CCN(C)CC2)c(F)cc1Nc1ncc(Cl)c(Oc2cccc3c2C(=O)N(C)C32CC2)n1` [Compound 140], for which the 50% inhibitory concentration (IC50) at FAK recombinant protein is less than 0.02 µM; in the data set on PC3 cells [1] it was greater than 2 µM; with PC3 cells [2], 0.005 to 0.05 µM.
